What all share (assay): relative viability (nuclei count vs DMSO), 5 days (fraction); higher = more cells survive
Compound in experiment [1]: C1=CC=C2C(=C1)N=C(S2)C(C#N)C3=NC(=NC=C3)NCCC4=CN=CC=C4 + O=C(c1cc(Cc2n[nH]c(=O)c3ccccc23)ccc1F)N1CCN(C(=O)C2CC2)CC1 [Olaparib] (partner 8 µM)
A digest of the protocol: (§1)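 The day after seeding in 1536-well plates, lung cancer cell lines were treated by pin tool with a single drug, or with a fixed anchor-drug dose together with five library-drug doses (not always all listed) in √10 steps. After 5 days, a combined fix-and-stain solution (final 0.05% Triton X-100, 1% formaldehyde, 1 ug/ml Hoechst) was added. Nuclei counted on 4× images gave relative viability as treated counts over vehicle counts, reported as the median of duplicate plates.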

Compound in experiment [2]: C1=CC=C2C(=C1)N=C(S2)C(C#N)C3=NC(=NC=C3)NCCC4=CN=CC=C4 + Nc1ncn([C@H]2C[C@H](O)[C@@H](CO)O2)c(=O)n1 [Decitabine] (partner 2 µM)
A digest of the protocol: as §1

Compound in experiment [3]: C1=CC=C2C(=C1)N=C(S2)C(C#N)C3=NC(=NC=C3)NCCC4=CN=CC=C4 + N=C(N)NC(=N)NCCc1ccccc1 [Phenformin] (partner 250 µM)
A digest of the protocol: as §1

Compound in the experiment “NVP-TAE684 + Linsitinib”: COc1cc(N2CCC(N3CCN(C)CC3)CC2)ccc1Nc1ncc(Cl)c(Nc2ccccc2S(=O)(=O)C(C)C)n1 [NVP-TAE684] + C[C@]1(O)C[C@@H](c2nc(-c3ccc4ccc(-c5ccccc5)nc4c3)c3c(N)nccn32)C1 [Linsitinib] (partner 1 µM)
The procedure, abridged: as §1

Compound in the experiment “NVP-TAE684 + Dasatinib”: COc1cc(N2CCC(N3CCN(C)CC3)CC2)ccc1Nc1ncc(Cl)c(Nc2ccccc2S(=O)(=O)C(C)C)n1 [NVP-TAE684] + Cc1nc(Nc2ncc(C(=O)Nc3c(C)cccc3Cl)s2)cc(N2CCN(CCO)CC2)n1 [Dasatinib] (partner 0.075 µM)
A digest of the protocol:
as §1

As to UMC-11, the relative viability in experiment [1] (first compound 0.01581 µM) came to 0.344; in experiment [1] (first compound 0.05 µM), 0.349; in experiment [1] (first compound 0.1581 µM), 0.366; in experiment [1] (first compound 0.5 µM), 0.382; in experiment [2] (first compound 0.005 µM), 0.546; in experiment [2] (first compound 0.01581 µM), 0.65. The relative viability in experiment [2] (first compound 0.05 µM) was found to be 0.456; in experiment [2] (first compound 0.1581 µM), 0.589; in experiment [2] (first compound 0.5 µM), 0.59; in experiment [3] (first compound 0.005 µM) it was 0.3; in experiment [3] (first compound 0.01581 µM), 0.315; in experiment [3] (first compound 0.05 µM) it was 0.32. For the same cell line, the relative viability in experiment [3] (first compound 0.1581 µM) worked out at 0.325; in experiment [3] (first compound 0.5 µM), 0.336; with NVP-TAE684 + Linsitinib (first compound 0.2 µM), 1.14; with NVP-TAE684 + Linsitinib (first compound 0.6325 µM) it was 0.904; in the experiment with NVP-TAE684 + Linsitinib (first compound 2 µM), 0.282; with NVP-TAE684 + Dasatinib (first compound 0.2 µM) it was 0.577. The results for the relative viability with NVP-TAE684 + Dasatinib (first compound 0.6325 µM) and in the experiment with NVP-TAE684 + Dasatinib (first compound 2 µM) were 0.415 and 0.284, respectively.

Values taken from the supplement of paper PMC10307832.
